Data published in PMC4793717 (Pharmacology, 2013).
“Also recorded” adds a separate entry of the source. Where two headings read alike, the source gives them in different places.

Key:
TrkB receptor [1] = details: cited from earlier work
TrkB [2] = target: T1, TrkB (Mus musculus, UniProt P15209); details: oral administration, at 2 or 4 h; cited from earlier work
Caco-2 = assay: In vitro Caco-2 permeability assay; format: in vitro ADME; details: test conc. 10 μmol/l, 2 h
Akt = assay: p-Akt ELISA of mouse brain samples; format: in vivo, C57BL/6J mice; details: for p-Akt versus control in entacapone-treated and tolcapone-treated groups (ELISA): COMT inhibitor 30 mg/kg pretreatment, flavonoid 5 mg/kg
TrkB receptor [3] = target: T2, TrkB receptor (Rattus norvegicus, UniProt Q63604); assay: TrkB activation in primary cortical neurons; format: cell-based; details: for TrkB activation in primary neurons (p-TrkB Y816): 500 nmol/l, 15 min, primary cortical neurons
TrkB [4] = target: T1, TrkB; assay: TrkB activation in mouse brain after oral gavage; format: in vivo, C57BL/6J mice; details: 5 mg/kg oral gavage, brain collected at 2 h
mice [5] = details: cited from earlier work
dentate gyrus [6] = assay: Neurogenesis assay via BrdU incorporation in the dentate gyrus; format: in vivo, C57BL/6J mice; details: 5 mg/kg orally for 21 days
mice [7] = assay: Forced swim test; format: in vivo, C57BL/6J mice; details: 5 mg/kg orally once a day for 21 days
mice [8] = assay: Tail suspension test; format: in vivo, C57BL/6J mice; details: 5 mg/kg orally once a day for 21 days
[9] = In vivo pharmacokinetic study of 7,8-DHF, plasma and brain by HPLC-MS/MS; set-up: species or system CD-1 mice; details: for half-life: T1/2, plasma
TrkB [10] = target: T1, TrkB; assay: Immunohistochemistry staining of p-TrkB in the dentate gyrus; format: in vivo, mice; details: 5 mg/kg orally for 21 days
[11] = In vitro Caco-2 permeability assay; format: in vitro ADME; details: human, Caco-2
dentate gyrus [12] = details: chronic treatment; cited from earlier work
[13] = chronic treatment, dose of 5 mg/kg; cited from earlier work
TrkB receptor [14] = target: T2, TrkB receptor; details: cited from earlier work
[15] = male, CD-1, mouse, plasma, po, 50 mg/kg, mice, after 7,8-DHF p.o. 50 mg/kg
[16] = mice, after 7,8-DHF p.o. 50 mg/kg
[17] = male, CD-1, mouse, plasma, po, 50 mg/kg

T1 sequence (P15209 32-821): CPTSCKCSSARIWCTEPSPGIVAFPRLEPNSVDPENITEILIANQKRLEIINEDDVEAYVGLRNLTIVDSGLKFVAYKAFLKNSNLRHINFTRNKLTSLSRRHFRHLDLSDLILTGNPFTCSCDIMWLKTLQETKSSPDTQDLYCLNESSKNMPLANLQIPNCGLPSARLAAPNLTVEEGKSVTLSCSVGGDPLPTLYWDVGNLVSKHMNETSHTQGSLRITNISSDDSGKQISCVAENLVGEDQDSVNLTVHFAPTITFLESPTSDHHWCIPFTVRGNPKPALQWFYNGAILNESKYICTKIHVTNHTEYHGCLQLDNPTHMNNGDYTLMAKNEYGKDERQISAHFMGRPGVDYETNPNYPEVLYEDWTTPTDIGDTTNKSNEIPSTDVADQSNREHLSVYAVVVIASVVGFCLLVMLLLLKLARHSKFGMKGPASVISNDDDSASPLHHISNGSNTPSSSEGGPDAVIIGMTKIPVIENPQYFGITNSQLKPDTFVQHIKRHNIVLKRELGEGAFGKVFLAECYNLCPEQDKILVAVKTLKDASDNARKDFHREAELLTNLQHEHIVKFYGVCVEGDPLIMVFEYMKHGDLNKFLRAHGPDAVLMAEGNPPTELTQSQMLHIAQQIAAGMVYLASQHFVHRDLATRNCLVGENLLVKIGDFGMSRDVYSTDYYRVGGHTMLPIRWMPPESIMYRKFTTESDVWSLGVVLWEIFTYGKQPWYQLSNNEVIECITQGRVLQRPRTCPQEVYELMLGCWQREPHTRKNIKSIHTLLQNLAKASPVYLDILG
T2 sequence (Q63604 32-821): as the sequence (P15209 32-821) above, with T3M, S9T, A10T, V32I, R63K, S84G, M153T, L185I, S394T, S770N counted along it

Question: For `O=c1cc(-c2ccccc2)oc2cc(O)cc(O)c12` [5,7-dihydroxyflavone], which TrkB agonistic effect (TrkB receptor [1]) is on record?
Answer: but not 5,6-dihydroxyflavone or 5,7-dihydroxyflavone possess a TrkB agonistic effect

Question: Which “TrkB activation in mouse brain” value (TrkB [2]) does the source give for `CN(C)c1ccc(-c2cc(=O)c3ccc(O)c(O)c3o2)cc1` [4′-DMA-7,8-DHF, 4′-dimethylamino-7,8-DHF] here?
Answer: evidently activates the TrkB receptor in mouse brain

Question: And the “Comment (Caco-2 permeability)” value (Caco-2)?
Answer: poor recovery A to B

Question: And the “Mean A→B Papp” value (Caco-2)?
Answer: 0.9 10^−6 cm•s^−1

Question: What about the “Mean B→A Papp” value (Caco-2) of the same molecule?
Answer: 3.1 10^−6 cm•s^−1

Question: What about the Efflux ratio (Caco-2; >2 indicates significant efflux activity) of the same molecule?
Answer: 3.6

Question: And the “Akt activation in mouse brain (p-Akt ELISA)” value (Akt; 1 mg/kg oral, 2 h)?
Answer: potently activated Akt

Question: What about the “p-Akt versus control in entacapone-treated and tolcapone-treated groups (ELISA)” value (Akt) of the same molecule?
Answer: no significant changes

Question: What about the “TrkB activation in primary neurons (p-TrkB Y816)” value (TrkB receptor [3]) of the same molecule?
Answer: more robust TrkB agonistic activity than 7,8-DHF; also recorded: activated TrkB receptor signaling pathways in primary neurons

Question: And the “TrkB activation in mouse brain (p-TrkB Y816)” value (TrkB [4])?
Answer: obviously activated TrkB compared to vehicle control

Question: And the “immobility in FST” value (mice [5]; chronic treatment)?
Answer: robustly decreased the immobility in FST after chronic treatment

Question: For `O=c1cc(-c2ccccc2)oc2cc(O)c(O)cc12` [6,7-dihydroxyflavone], which TrkB agonistic effect (TrkB receptor [1]) is on record?
Answer: possess a TrkB agonistic effect

Question: Which TrkB agonistic effect (TrkB receptor [1]) does the source give for `O=c1cc(-c2cccc(O)c2)oc2cc(O)c(O)cc12` [6,7,3′-trihydroxyflavone] here?
Answer: possess a TrkB agonistic effect

Question: With `COc1ccc2c(=O)cc(-c3ccccc3)oc2c1O` [H428, 7-methoxy-8-hydroxyflavone] as the molecule, how does the “neurogenesis (BrdU-positive cells in the dentate gyrus)” value (dentate gyrus [6]) read?
Answer: significantly promoted neurogenesis compared to vehicle

Question: What about the “immobility in FST” value (mice [7]) of the same molecule?
Answer: strongest effect

Question: What about the “immobility in TST” value (mice [8]) of the same molecule?
Answer: substantially decreased the immobility

Question: And the “TrkB activation in primary neurons (p-TrkB Y816)” value (TrkB receptor [3])?
Answer: activates the TrkB receptor in primary neurons

Question: What about the half-life [9, 15] of the same molecule?
Answer: 1.53 h

Question: What about the “earliest detection in plasma” value [9, 16] of the same molecule?
Answer: 3 min

Question: What about the “plasma concentration at 6 h” value [9, 16] of the same molecule?
Answer: below the quantitative limit

Question: What about the “detection in mouse brain at any time” value ([9]; mice, after 7,8-DHF p.o. 50 mg/kg, 50 mg/kg) of the same molecule?
Answer: below the limit of quantification

Question: What about the “TrkB phosphorylation in the dentate gyrus (immunohistochemistry)” value (TrkB [10]) of the same molecule?
Answer: strongly provoked TrkB phosphorylation in the dentate gyrus

Question: What about the “TrkB activation in mouse brain (p-TrkB Y816)” value (TrkB [4]) of the same molecule?
Answer: clearly activated the TrkB receptor compared to vehicle control

Question: Which results are given for `COc1c(O)ccc2c(=O)cc(-c3ccccc3)oc12` [8-methoxy-metabolite, 7-hydroxy-8-methoxyflavone]?
Answer: half-life [9, 15]: 2.47 h; earliest observation in brain [9, 16]: 3 min

Question: Which TrkB agonistic effect (TrkB receptor [1]) does the source give for `O=c1cc(-c2ccccc2)oc2ccc(O)c(O)c12` [5,6-dihydroxyflavone] here?
Answer: but not 5,6-dihydroxyflavone or 5,7-dihydroxyflavone possess a TrkB agonistic effect

Question: With `CC(=O)CC(c1ccccc1)c1c(O)c2ccccc2oc1=O` (centres unmarked) [Warfarin, reference compound] as the molecule, how does the “Comment (Caco-2 permeability)” value (Caco-2) read?
Answer: high permeability control

Question: And the Papp A→B at 2 h, 10 μmol/l [11]?
Answer: 52.6 ×10⁻⁶ cm/s

Question: What about the Papp B→A at 2 h, 10 μmol/l [11] of the same molecule?
Answer: 18.3 ×10⁻⁶ cm/s

Question: What about the efflux ratio at 2 h, 10 μmol/l [11] of the same molecule?
Answer: 0.3

Question: Which results are given for `COc1ccc2c(=O)cc(-c3ccccc3)oc2c1OC` [D024]?
Answer: TrkB activation in mouse brain (p-TrkB Y816) (TrkB [4]): elicited TrkB activation (p-TrkB Y816), but the effect was not as strong as that of the other two compounds; p-TrkB 706 immunoblotting in mouse brain (TrkB [4]): elicited the strongest p-TrkB signal

Question: Which “Comment (Caco-2 permeability)” value (Caco-2) does the source give for `CNC(=C[N+](=O)[O-])NCCSCc1ccc(CN(C)C)o1` [Ranitidine, reference compound] here?
Answer: low permeability, efflux

Question: And the Papp A→B at 2 h, 10 μmol/l [11]?
Answer: 0.3 ×10⁻⁶ cm/s

Question: And the Papp B→A at 2 h, 10 μmol/l [11]?
Answer: 2.9 ×10⁻⁶ cm/s

Question: And the efflux ratio at 2 h, 10 μmol/l [11]?
Answer: 10.9

Question: For `O=c1cc(-c2ccccc2)oc2c(O)c(O)ccc12` [7,8-DHF, 7,8-Dihydroxyflavone], which “TrkB activation in mouse brain” value (TrkB [2]) is on record?
Answer: evidently activates the TrkB receptor in mouse brain

Question: And the “Comment (Caco-2 permeability)” value (Caco-2)?
Answer: poor recovery A to B

Question: And the Papp A→B at 2 h, 10 μmol/l [11]?
Answer: 1.5 ×10⁻⁶ cm/s

Question: What about the Papp B→A at 2 h, 10 μmol/l [11] of the same molecule?
Answer: 1.7 ×10⁻⁶ cm/s

Question: And the efflux ratio at 2 h, 10 μmol/l [11]?
Answer: 1.2

Question: And the “p-Akt versus control in entacapone-treated and tolcapone-treated groups (ELISA)” value (Akt)?
Answer: no significant changes

Question: And the “neurogenesis in the dentate gyrus” value (dentate gyrus [12])?
Answer: enhances neurogenesis in the dentate gyrus

Question: And the “brain concentration of parent compound relative to methylated metabolite” value ([9]; brain, mice, after 7,8-DHF p.o. 50 mg/kg)?
Answer: approximately 30 fold

Question: And the Cmax ([9]; male, CD-1, mouse, brain, po, 50 mg/kg)?
Answer: 70 ng/mL

Question: What about the AUC(0-inf) [9, 17] of the same molecule?
Answer: 125 ng·h/mL

Question: And the AUC(0-t) [9, 17]?
Answer: 108 ng·h/mL

Question: What about the Cmax [9, 17] of the same molecule?
Answer: 70 ng/mL

Question: And the Tmax [9, 17]?
Answer: 0.167 h

Question: What about the half-life [9, 15] of the same molecule?
Answer: ~2.23 h

Question: And the “brain concentration at 6 h” value [9, 16]?
Answer: below the quantitative limit

Question: And the “penetration of the brain-blood barrier” value ([9]; mice, oral dosing of 50 mg/kg 7,8-DHF)?
Answer: can penetrate the brain-blood barrier

Question: What about the toxicity [13] of the same molecule?
Answer: reveals no demonstrable toxicity

Question: What about the “TrkB activation in mouse brain (p-TrkB Y816)” value (TrkB [4]) of the same molecule?
Answer: clearly activated the TrkB receptor compared to vehicle control; also recorded: obviously activated TrkB compared to vehicle control

Question: What about the “concentration at which TrkB phosphorylation was prominent” value (TrkB receptor [14]) of the same molecule?
Answer: 100 nmol/L

Question: And the latency of immobility (mice [5]; acute injection)?
Answer: has no effect on the latency of immobility

Question: And the “immobility in FST” value (mice [5]; chronic treatment)?
Answer: robustly decreased the immobility in FST after chronic treatment

Question: What about the “immobility in FST” value (mice [5]; subchronic intraperitoneal injection) of the same molecule?
Answer: significantly decreases immobility in FST

B1: BDNF: Brain-derived neurotrophic factor, member of the neurotrophin family; positive control from Roche (protein, UniProt P23560 19-247, looked up)
Neurotrophic factor BDNF …: APMKEANIRGQGGLAYPGVRTHGTLESVNGPKAGSRGLTSLADTFEHVIEELLDEDQKVRPNEENNKDADLYTSRVMLSSQVPLEPPLLFLLEEYKNYLDAANMSMRVRRHSDPARRGELSVCDSISEWVTAADKKTAVDMSGGTVTVLEKVPVSKGQLKQYFYETKCNPMGYTKEGCRGIDKRHWNSQCRTTQSYVRALTMDSKKRIGWRFIRIDTSCVCTLTIKRGR
Question: With B1 as the molecule, how does the “concentration eliciting TrkB activation” value (TrkB receptor [3]; titration assay in primary neurons) read?
Answer: 1 to 30 nmol/L
